{"source": "patent US20220016142A1", "about": "“COMBINATION THERAPY FOR TREATMENT OF CANCER” (PLUS VITECH, S.L., priority 2018, published 2022)", "tested_on": "B16F10 cells (melanoma)", "experiment": "B16F10 melanoma tumor growth in mice (Example 2b)", "assay_type": "in vivo, C57BL/6J mice", "conditions": "maropitant 30 mg/kg i.p. once a day, anti CTLA-4 5 mg/kg i.p. every other day, FIG. 5", "experimental": "One Lewis Pulmonar Carcinoma cell line: 3LL; and one melanoma cell line: B16F10 (ATCC cell bank; LGC Standards); were used in this study. Both cell lines were maintained in culture in Dulbecco's modified Eagle's medium (DMEM) (Gibco, Thermo Fisher Scientific) supplemented with 10% foetal bovine serum (FBS) (Gibco, Thermo Fisher Scientific), 2 mM L-glutamine (Sigma-Aldrich, Merk) and Peni-Strep (50 U/ml and […]; Gibco, Thermo Fisher Scientific) in a humidified incubator at 37° C. and 5% CO2.\nCerenia® (maropitant citrate injectable solution; Zoetis US) was injected intraperitoneally at a dose of 30 mg/kg, once a day. […]\n3LL cells (0.6×10^6 per mouse) or B16F10 cells (1×10^6 per mouse) were subcutaneously injected into the right flank of C57BL/6J mice (Charles River) with matrigel (Matrigel Membrane Matrix, Corning) at 50% v/v. Tumor growth was evaluated every 2/3 days. Animal vital parameters were monitored daily. […]\nIn order to evaluate the effect of Maropitant and anti CTLA-4 combination in vivo, B16F10 tumor-bearing mice were randomly assigned into four treatment groups as detailed in table 1 (n=6 mice per group) to receive either Maropitant 30 mg/kg, anti CTLA-4 5 mg/kg, the combination of both agents or the equivalent volume of vehicle. Tumor growth was recorded as detailed in Materials and Methods. […]"}
{"smiles": "COc1ccc(C(C)(C)C)cc1CN[C@H]1C2CCN(CC2)[C@H]1C(c1ccccc1)c1ccccc1.O=C(O)CC(O)(CC(=O)O)C(=O)O", "note": "[Maropitant, maropitant citrate]", "values": [{"measurement": "reduction in tumor growth compared to vehicle group", "setting": "after 9 days of treatment", "result": 28, "unit": "%"}, {"measurement": "effect on growth of melanoma tumours (in words)", "setting": "9 days", "result": "inhibited the grown of melanoma tumours"}]}
